Results on 51 compounds are retold here after US9695165B2, “Inhibitors of the fibroblast growth factor receptor” (BLUEPRINT MEDICINES CORPORATION, priority 2014, dated 2017).

Assay [1] has as its system pMAPK (Thr202/Tyr204) in MDA-MB453 cells. Description: Detection of pMAPK (Thr202/Tyr204) using Alpha Elisa (pERK alphaLISA) in MDA-MB453 cells. The assay is classed as cell-based. The note with it: Homo sapiens, MDA-MB-453, 1 hr incubation with compound. In general terms: In Alpha technology, singlet oxygen from a donor bead excites a nearby acceptor bead.
Method: MDA-MB453 cells were plated in 96-well cell culture plates at a density of 1×10^5 cells. Cells were allowed to attach, and growth media was replaced with serum free media. Compounds were added at the indicated concentrations. Following 1 hr incubation in the presence of compound, cells were collected. Cell lysates were prepared and processed according to manufacturer instruction (AlphaScreen® SureFire™ Phospho-ERK 1/2 Kit (Perkin Elmer).
The target in the next assay is wild type FGFR-4 (Homo sapiens (Human), UniProt P22455). In words: FGFR-4 wild type assay at Km (Caliper electrophoretic mobility shift). Type of assay: biochemical. The note with it: wild type FGFR-4, 400 uM ATP, 25 C, 90 minutes; read-out: FGFR4 IC50. As for the experimental part: In order to assess the activity of chemical compounds against the relevant kinase of interest, the Caliper LifeSciences electrophoretic mobility shift technology platform is utilized. Fluorescently labeled substrate peptide is incubated in the presence of dosed levels of compounds, a set concentration of kinase and of ATP, so that a reflective proportion of the peptide is phosphorylated. At the end of the reaction, the mix of phosphorylated (product) and non-phosphorylated (substrate) peptides are passed through the microfluidic system of the Caliper LabChip® EZ Reader II, under an applied potential difference. The presence of the phosphate group on the product peptide provides a difference in mass and charge between the product peptide and the substrate peptide, resulting in a separation of the substrate and product pools in the sample. As the pools pass the LEDS within the instrument, these pools are detected and resolved as separate peaks. The ratio between these peaks therefore reflects the activity of the chemical matter at that concentration in that well, under those conditions.
The reaction was stopped by the addition of 70 ul of Stop buffer (100 mM HEPES pH 7.5, 0.015% Brij 35, 35 mM EDTA and 0.2% of Coating Reagent 3 (Caliper Lifesciences)). The plate was then read on a Caliper LabChip® EZ Reader II (protocol settings: −1.9 psi, upstream voltage −700, downstream Voltage −3000, post sample sip 35S).

wild type FGFR-4, sequence (P22455 22-802): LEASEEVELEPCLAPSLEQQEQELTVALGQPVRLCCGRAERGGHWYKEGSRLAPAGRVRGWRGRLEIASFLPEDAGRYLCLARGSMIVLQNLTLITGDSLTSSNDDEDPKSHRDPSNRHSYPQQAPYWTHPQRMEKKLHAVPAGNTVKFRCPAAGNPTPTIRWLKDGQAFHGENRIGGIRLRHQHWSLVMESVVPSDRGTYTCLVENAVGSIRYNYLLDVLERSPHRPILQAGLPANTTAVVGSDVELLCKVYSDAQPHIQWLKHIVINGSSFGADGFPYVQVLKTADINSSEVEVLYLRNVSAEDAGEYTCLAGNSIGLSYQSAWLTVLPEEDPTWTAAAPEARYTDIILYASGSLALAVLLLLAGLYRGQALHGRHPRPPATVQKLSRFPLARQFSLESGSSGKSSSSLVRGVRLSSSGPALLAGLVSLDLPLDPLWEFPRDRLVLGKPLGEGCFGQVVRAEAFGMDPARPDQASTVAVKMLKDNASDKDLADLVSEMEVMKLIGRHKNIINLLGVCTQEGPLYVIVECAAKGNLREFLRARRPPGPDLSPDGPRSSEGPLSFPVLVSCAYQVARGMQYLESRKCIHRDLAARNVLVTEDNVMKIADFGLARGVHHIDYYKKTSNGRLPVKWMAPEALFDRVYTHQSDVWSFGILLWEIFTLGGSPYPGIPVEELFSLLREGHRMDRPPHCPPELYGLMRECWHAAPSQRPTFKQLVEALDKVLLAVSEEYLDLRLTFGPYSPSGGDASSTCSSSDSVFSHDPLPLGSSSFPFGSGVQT

Usually IC50 stands for the midpoint of a concentration-inhibition curve. With `C=CC(=O)Nc1ccc(F)c(-c2cc3c(cn2)cc(-c2cc(OC)cc(OC)c2Cl)c(=O)n3CC)c1` [Compound 12], the half-inhibitory concentration (IC50) (in assay [1]; on wild type FGFR-4) was below 10 nM throughout.
As to `C=CC(=O)Nc1ccccc1-c1ncc2cc(-c3c(Cl)c(OC)cc(OC)c3Cl)c(OC)cc2n1` [Compound 15], the IC50 on wild type FGFR-4 was in the range of 100 to 1000 nM.
With `C=CC(=O)N1CCOc2ccc(-c3cc4c(cn3)cc(-c3c(Cl)c(OC)cc(OC)c3Cl)c(=O)n4C3CCCC3)cc21` [Compound 54], the concentration for half-maximal inhibition (IC50) on wild type FGFR-4 was in the range of 10 to 100 nM.
`C=CC(=O)Nc1cccc(F)c1-c1ncc2cc(-c3c(Cl)c(OC)cc(OC)c3Cl)ccc2n1` [Compound 7]: in assay [1], the concentration for half-maximal inhibition (IC50) was 100 to 1000 nM.
With `C=CC(=O)N1CCOc2ccc(-c3cc4c(cn3)cc(-c3c(Cl)c(OC)cc(OC)c3Cl)c(=O)n4C)cc21` [Compound 37], the concentration for half-maximal inhibition (IC50) at wild type FGFR-4 was below 10 nM.
Take `C=CC(=O)Nc1ccc(F)c(-c2cc3c(cn2)cc(-c2c(Cl)c(OC)cc(OC)c2Cl)c(=O)n3C(C)C)c1` [Compound 40]: the IC50 (in assay [1]; on wild type FGFR-4) was below 10 nM each time.
In the case of `C=CC(=O)Nc1ccccc1-c1ncc2cc(-c3c(Cl)c(OC)cc(OC)c3Cl)ccc2n1` [Compound 2], on wild type FGFR-4, the concentration for half-maximal inhibition (IC50) fell in the range of 100 to 1000 nM.
With `C=CC(=O)Nc1cccc(-c2cc3c(cn2)cc(-c2c(Cl)c(OC)cc(OC)c2Cl)c(=O)n3CC)c1` [Compound 20], the half-maximal inhibitory concentration (IC50) (in assay [1]; on wild type FGFR-4) was below 10 nM each time.
On to `C=CC(=O)N1CCC(C)(C)c2ccc(-c3ncc4cc(-c5c(Cl)c(OC)cc(OC)c5Cl)ccc4n3)cc21` [Compound 33], for which the IC50 at wild type FGFR-4 was in the range of 100 to 1000 nM.
For the compound `C=CC(=O)N1CCOc2ccc(-c3ncc4cc(-c5c(Cl)c(OC)cc(OC)c5Cl)c(OC)cc4n3)cc21` [Compound 36], the IC50 at wild type FGFR-4 was 10 to 100 nM.
In the case of `C=CC(=O)N1CCOc2ccc(-c3cc4c(cn3)cc(-c3c(Cl)c(OC)cc(OC)c3Cl)c(=O)n4CC)cc21` [Compound 47], the IC50 in assay [1] is 10 to 100 nM; on wild type FGFR-4, below 10 nM.
For `C=CC(=O)N1c2cc(-c3ncc4cc(-c5c(Cl)c(OC)cc(OC)c5Cl)ccc4n3)c(F)cc2OCC1C` (stereo not drawn) [Compound 38], the IC50 on wild type FGFR-4 fell in the range of 10 to 100 nM.
On the same count and under the same terms, the same measure for `C=CC(=O)N1CCOc2ccc(-c3cc4c(cn3)nc(-c3c(Cl)c(OC)cc(OC)c3Cl)c(=O)n4C3CCCC3)cc21` [Compound 56]: below 10 nM.
For `C=CC(=O)Nc1cccc(-c2cc3c(cn2)CN(c2c(Cl)c(OC)cc(OC)c2Cl)C(=O)N3CC)c1` [Compound 22], the half-inhibitory concentration (IC50) (in assay [1]; at wild type FGFR-4) was 10 to 100 nM in each case.
In the case of `C=CC(=O)Nc1cccc(-c2ncc3cc(-c4c(Cl)c(OC)cc(OC)c4Cl)cc(OC)c3n2)c1` [Compound 13], at wild type FGFR-4, the IC50 lay in the range of 100 to 1000 nM.
Still for that read-out and setting: with `C=CC(=O)Nc1ccccc1-c1ncc2cc(-c3c(Cl)c(OC)cc(OC)c3Cl)c(=O)n(C3CCCC3)c2n1` [Compound 46] the figure was 10 to 100 nM.
Turning to `C=CC(=O)Nc1ccc(F)c(-c2cc3c(cn2)CN(c2c(Cl)c(OC)cc(OC)c2Cl)C(=O)N3CC)c1` [Compound 32], the concentration for half-maximal inhibition (IC50) in assay [1] was 10 to 100 nM; at wild type FGFR-4 it was below 10 nM.
In the case of `C=CC(=O)N1CCOc2ccc(-c3ncc4cc(-c5c(Cl)c(OC)cc(OC)c5Cl)c(=O)n(C5CCCC5)c4n3)cc21` [Compound 55], on wild type FGFR-4, the half-maximal inhibitory concentration (IC50) is 10 to 100 nM.
Same read-out and setting: with `C=CC(=O)Nc1ccc(C)c(-c2ncc3cc(-c4c(Cl)c(OC)cc(OC)c4Cl)ccc3n2)c1` [Compound 5] the figure was above 1000 nM; with `C=CC(=O)Nc1cc(F)c(F)c(-c2cc3c(cn2)cc(-c2c(Cl)c(OC)cc(OC)c2Cl)c(=O)n3CC)c1` [Compound 41], below 10 nM; with `C=CC(=O)N1CC(C)(C)Oc2cc(C)c(-c3ncc4cc(-c5c(Cl)c(OC)cc(OC)c5Cl)ccc4n3)cc21` [Compound 44], 10 to 100 nM.
Consider `C=CC(=O)Nc1ccc(F)c(-c2cc3c(cn2)cc(-c2c(F)c(OC)cc(OC)c2Cl)c(=O)n3CC)c1` [Compound 21], for which the concentration for half-maximal inhibition (IC50) (in assay [1]; at wild type FGFR-4) was below 10 nM throughout.
`C=CC(=O)Nc1ccccc1-c1cc2c(cn1)cc(-c1c(Cl)c(OC)cc(OC)c1Cl)c(=O)n2CC` [Compound 19]: the 50% inhibitory concentration (IC50) in assay [1] is 10 to 100 nM; at wild type FGFR-4, below 10 nM.
For the compound `C=CC(=O)N(C)c1cccc(-c2ncc3cc(-c4c(Cl)c(OC)cc(OC)c4Cl)ccc3n2)c1` [Compound 6], the concentration for half-maximal inhibition (IC50) on wild type FGFR-4 is above 1000 nM.
In the case of `C=CC(=O)Nc1ccc(F)c(-c2cc3c(cn2)cc(-c2cc(OC)cc(OC)c2)c(=O)n3C(C)C)c1` [Compound 4], the figures for the IC50 (in assay [1]; on wild type FGFR-4) were 100 to 1000 nM and 10 to 100 nM, respectively.
In the case of `C=CC(=O)N1CCOc2cc(C)c(-c3ncc4cc(-c5c(Cl)c(OC)cc(OC)c5Cl)ccc4n3)cc21` [Compound 24], the IC50 (in assay [1]; at wild type FGFR-4) was 10 to 100 nM each time.
Consider `C=CC(=O)Nc1ccc(F)c(-c2ncc3cc(-c4c(Cl)c(OC)cc(OC)c4Cl)c(=O)n(CC)c3n2)c1` [Compound 30], for which the half-inhibitory concentration (IC50) in assay [1] was below 10 nM.
In the case of `C=CC(=O)N1CCOc2ccc(-c3cc4c(cn3)CN(c3c(Cl)c(OC)cc(OC)c3Cl)C(=O)N4CC)cc21` [Compound 50], the half-maximal inhibitory concentration (IC50) is 10 to 100 nM in assay [1] and below 10 nM on wild type FGFR-4.
For `C=CC(=O)Nc1ccc(F)c(-c2cc3c(cn2)cc(-c2c(F)c(OC)cc(OC)c2F)c(=O)n3C(C)C)c1` [Compound 17], the IC50 (in assay [1]; at wild type FGFR-4) was below 10 nM each time.
Take `C=CC(=O)N1CCc2ccc(-c3ncc4cc(-c5c(Cl)c(OC)cc(OC)c5Cl)c(=O)n(CC)c4n3)cc21` [Compound 35]: the half-maximal inhibitory concentration (IC50) in assay [1] is 10 to 100 nM.
Regarding `C=CC(=O)Nc1ccc(C)c(-c2cc3c(cn2)cc(-c2c(Cl)c(OC)cc(OC)c2Cl)c(=O)n3CC)c1` [Compound 27], the half-maximal inhibitory concentration (IC50) (in assay [1]; on wild type FGFR-4) was 10 to 100 nM throughout.
`C=CC(=O)N1CCc2ccc(-c3ncc4cc(-c5c(Cl)c(OC)cc(OC)c5Cl)ccc4n3)cc21` [Compound 11]: the IC50 on wild type FGFR-4 was 10 to 100 nM.
Regarding `C=CC(=O)Nc1ccc(F)c(-c2cc3c(cn2)cc(-c2c(Cl)c(OC)cc(OC)c2Cl)c(=O)n3C)c1` [Compound 23], the IC50 was 10 to 100 nM in assay [1] and below 10 nM at wild type FGFR-4.
Turning to `C=CC(=O)Nc1cccc(-c2ncc3cc(-c4c(Cl)c(OC)cc(OC)c4Cl)ccc3n2)c1` [Compound 3], on wild type FGFR-4, the IC50 was above 1000 nM.
Still for that read-out and setting: with `C=CC(=O)N(C)c1ccccc1-c1cc2c(cn1)cc(-c1c(Cl)c(OC)cc(OC)c1Cl)c(=O)n2CC` [Compound 26] the figure was 10 to 100 nM.
Consider `C=CC(=O)Nc1cc(OC(C)C)cc(-c2cc3c(cn2)cc(-c2c(Cl)c(OC)cc(OC)c2Cl)c(=O)n3C)c1` [Compound 49], for which, at wild type FGFR-4, the IC50 fell in the range of 10 to 100 nM.
Take `C=CC(=O)Nc1ccc(F)c(-c2ncc3cc(-c4c(Cl)c(OC)cc(OC)c4Cl)c(=O)n(CC)c3n2)c1` [Compound 31]: the IC50 on wild type FGFR-4 lay in the range of 10 to 100 nM.
`C=CC(=O)Nc1ccccc1-c1cc2c(cn1)cc(-c1c(Cl)c(OC)cc(OC)c1Cl)c(=O)n2C(C)C` [Compound 25]: the values for the half-inhibitory concentration (IC50) (in assay [1]; at wild type FGFR-4) were 10 to 100 nM and below 10 nM, respectively.
Turning to `C=CC(=O)N1CC(C)(C)Oc2cc(F)c(-c3ncc4cc(-c5c(Cl)c(OC)cc(OC)c5Cl)ccc4n3)cc21` [Compound 48], the IC50 at wild type FGFR-4 was in the range of 10 to 100 nM.
In the case of `C=CC(=O)N1CCc2cc(F)c(-c3ncc4cc(-c5c(Cl)c(OC)cc(OC)c5Cl)ccc4n3)cc21` [Compound 18], the IC50 is 10 to 100 nM in assay [1] and below 10 nM at wild type FGFR-4.
In the case of `C=CC(=O)N1CC(C)(C)Oc2ccc(-c3cc4c(cn3)cc(-c3c(Cl)c(OC)cc(OC)c3Cl)c(=O)n4CC)cc21` [Compound 52], the half-inhibitory concentration (IC50) in assay [1] was in the range of 10 to 100 nM.
Regarding `C=CC(=O)N1CCCc2ccc(-c3cc4c(cn3)cc(-c3c(Cl)c(OC)cc(OC)c3Cl)c(=O)n4CC)cc21` [Compound 45], at wild type FGFR-4, the IC50 is below 10 nM.
On to `C=CC(=O)N1c2cc(-c3cc4c(cn3)cc(-c3c(Cl)c(OC)cc(OC)c3Cl)c(=O)n4CC)c(F)cc2OCC1C` (stereo not drawn) [Compound 53], for which the IC50 is 10 to 100 nM in assay [1] and below 10 nM on wild type FGFR-4.
Regarding `C=CC(=O)N1CCOc2cc(F)c(-c3ncc4cc(-c5c(Cl)c(OC)cc(OC)c5Cl)ccc4n3)cc21` [Compound 28], the values for the half-maximal inhibitory concentration (IC50) (in assay [1]; on wild type FGFR-4) were 10 to 100 nM and below 10 nM, respectively.
The corresponding values for `C=CC(=O)Nc1ccccc1-c1cc2c(cn1)cc(-c1cc(C(=O)NOC)ccc1Cl)c(=O)n2CC` [Compound 9] are 10 to 100 nM and below 10 nM.
The corresponding values for `C=CC(=O)N1CC(C)(C)Oc2ccc(-c3ncc4cc(-c5c(Cl)c(OC)cc(OC)c5Cl)ccc4n3)cc21` [Compound 34] are 10 to 100 nM and 10 to 100 nM.
The corresponding values for `C=CC(=O)Nc1ccc(F)c(-c2cc3c(cn2)cc(-c2cc(OC)cc(OC)c2F)c(=O)n3C(C)C)c1` [Compound 10] are 10 to 100 nM and below 10 nM.
As for `C=CC(=O)N1CCOc2ccc(-c3ncc4cc(-c5c(Cl)c(OC)cc(OC)c5Cl)ccc4n3)cc21` [Compound 16], the IC50 on wild type FGFR-4 was in the range of 10 to 100 nM.
`C=CC(=O)Nc1ccc(C)c(-c2cc3c(cn2)CN(c2c(Cl)c(OC)cc(OC)c2Cl)C(=O)N3CC)c1` [Compound 29]: the half-inhibitory concentration (IC50) on wild type FGFR-4 lay within 10 to 100 nM.
On to `CCn1c(=O)c(-c2c(Cl)c(OC)cc(OC)c2Cl)cc2cnc(-c3cccc(NC(=O)/C=C/CN(C)C)c3)cc21` [Compound 51], for which, on wild type FGFR-4, the half-maximal inhibitory concentration (IC50) was 10 to 100 nM.
Still for that read-out and setting: the same measure for `C=CC(=O)Nc1ccccc1-c1cc2ccc(-c3c(Cl)c(OC)cc(OC)c3Cl)cc2cn1` [Compound 1]: 100 to 1000 nM.
